Numbered stars: 1 amine (or outer) side, 2 acyl side, 3 side chain; on linkers, the order of the positions; unused ones are H or OH. Square brackets hold non-standard residues; d marks the D form. Side chains are listed from the residue outwards. Peptide text beside a SMILES is read from it. * marks the point of attachment. DOTA = O=C(O)CN1CCN(CC(=O)O)CCN(CC(=O)*)CCN(CC(=O)O)CC1; d(γGlu) = O=C(O)[C@@H](CCC(=O)[*:2])N[*:1]; 1Nal = N[C@@H](Cc1cccc2ccccc12)C(=O)O; NMeNle = CCCC[C@H](NC)C(=O)O; PEG4 = NCCOCCOCCOCCOCCC(=O)O
Experiments:
[1] = design: species or system KM mice; settings: mouse, in vivo, iv
Protocol: To evaluate the clearance rates of [^68Ga]Ga-DOTA-CCK2R-dimer and [^68Ga]Ga-DOTA-CCK-66 from the blood, a pharmacokinetic study was conducted in male KM mice (4-6 weeks old, 18-20 g, n = 5/group). Each mouse received 3.7 MBq of radiotracer via tail vein injection, corresponding to approximately 120 pmol of [^68Ga]Ga-DOTA-CCK2R-dimer or 210 pmol of [^68Ga]Ga-DOTA-CCK-66. Blood samples were collected from the tail vein into preweighed capillary tubes at 1, 3, 5, 10, 15, 30, 60, 90, 120, and 150 min post-injection. The radioactivity of the blood samples was measured using a γ-counter, and the percent of injected dose per gram of tissue (%ID/g) was calculated. Additionally, we assessed the in vivo stability of [^177Lu]Lu-DOTA-CCK2R-dimer. Mice were intravenously injected with 7.4 MBq (≈ 240 pmol) of [^177Lu]Lu-DOTA-CCK2R-dimer (dissolved in 200 μL of saline; n = 3/group). Urine samples were collected at 1, 4, and 24 hours post-injection, then diluted, filtered through a 0.22 μm membrane, and analyzed by radio-HPLC.
All animal studies were approved by the Ethics Committee of Fudan University […]
Shanghai Cancer Center (No. FUSCC-IACUC- S2023- 0003). […]
Pharmacokinetics in Normal Mice
F or the pharmacokinetics study, […] male KM mice (4 - 6 weeks old, weighing 18 - 20 g) were administered either [68Ga]Ga-D O TA -CCK2R-dimer or [68Ga]Ga-D O TA -CCK- 66 (3.7 MBq per mouse, n = 5/group) via tail vein injection.
Blood samples were collected from the tail vein using pre-weighed capillary tubes at […]
Radioactivity levels were measured using a gamma counter, with decay correction applied based on the injection time. The percentage of injected dose per gram of tissue (%ID/g) was calculated for each time point. […]

in vivo [2] = assay: in vivo; design: species or system BALB/c nude mice; settings: female, BALB/c nude, mouse, iv, total radioactivity
Protocol: For the micro-positron emission tomography/computed tomography (microPET/CT) imaging study, BALB/c nude mice bearing AR42J tumors (detailed in Supplementary Methods Section S3: Mouse Models) were intravenously injected with 3.7 MBq of [^68Ga]Ga-DOTA-CCK2R-dimer (≈ 120 pmol) or [^68Ga]Ga-DOTA-CCK-66 (≈ 210 pmol) (dissolved in 200 μL of saline; n = 3/group), and microPET/CT imaging was performed at 30, 60, and 120 min post-injection. The mice were anesthetized via inhalation of an isoflurane mixture approximately 5 min before each PET/CT acquisition began. To confirm tumor-specific radiopharmaceutical uptake, blocking experiments were conducted at the 1-h time point of imaging by coinjecting the mice with the radiopharmaceutical and a 400-fold excess of the lead compound.
(§1) All animal studies were approved by the Ethics Committee of Fudan University
(§2) Shanghai Cancer Center (No. FUSCC-IACUC- S2023- 0003). Five-week-old female
(§3) BALB/c nude mice were purchased from Shanghai SLAC Laboratory Animal
(§4) Company. To establish cell-derived xenograft (CDX) models, 1 × 10⁶ AR42J cells
(§5) (100 μL) were subcutaneously inoculated into the right shoulder of each mouse. […]

in vivo [3] = assay: in vivo; design: species or system BALB/c nude mice; settings: mouse; for tissue to tissue ratio at 0.5 h / tissue to tissue ratio at 1 h / tissue to tissue ratio at 2 h: female, BALB/c nude, iv, 3.7 MBq, total radioactivity
Protocol: To complement the imaging studies, biodistribution experiments were performed. AR42J tumor-bearing mice were intravenously injected with 3.7 MBq of [^68Ga]Ga-DOTA-CCK2R-dimer (≈ 120 pmol) or [^68Ga]Ga-DOTA-CCK-66 (≈ 210 pmol) (dissolved in 200 μL of saline; n = 3/group). The mice were sacrificed at 30, 60, and 120 min post-injection, and the tissues of interest were excised, weighed, and analyzed for radioactivity using a γ-counter. For blocking studies, a 400-fold excess of the lead compound was co-administered, and the mice were sacrificed at 1 h post-injection.
as §1, §2, §3, §4, §5

[4] = Tumor-to-Large intestine ratio (T/B)
[5] = Tumor-to-Small intestine ratio (T/B)

With `CCCC[C@@H](C(=O)N[C@@H](CC(=O)O)C(=O)N[C@@H](Cc1cccc2ccccc12)C(N)=O)N(C)C(=O)[C@H](Cc1c[nH]c2ccccc12)NC(=O)CCOCCOCCOCCOCCNC(=O)CC[C@@H](NC(=O)CC[C@H](NC(=O)CN1CCN(CC(=O)O)CCN(CC(=O)O)CCN(CC(=O)O)CC1)C(=O)N[C@H](CCC(=O)NCCOCCOCCOCCOCCC(=O)N[C@@H](Cc1c[nH]c2ccccc12)C(=O)N(C)[C@@H](CCCC)C(=O)N[C@@H](CC(=O)O)C(=O)N[C@@H](Cc1cccc2ccccc12)C(N)=O)C(=O)O)C(=O)O` [[68Ga]Ga-DOTA-CCK2R-dimer, metal not drawn] ({DOTA}-E([d(γGlu)-PEG4-Trp-NMeNle-Asp-1Nal-NH2])[d(γGlu)][PEG4]W[NMeNle]D[1Nal]-NH2) the half-life [1] was 46.6 min, the tissue uptake at 0.5 h (in vivo [2]; 3.7 MBq) was 22.6 ± 0.32 %ID/g and the tissue uptake at 1 h (in vivo [2]; 3.7 MBq) was 23.9 ± 2.12 %ID/g. The tissue uptake at 2 h (in vivo [2]; 3.7 MBq) was 26.1 ± 6.21 %ID/g, the tissue uptake at 1 h (in vivo [2]) was 10.9 ± 1.73 %ID/g and the tissue to tissue ratio at 0.5 h (in vivo [3]; Tumor-to-Bladder ratio (T/B)) was 7.42 ± 4.09. For the same molecule, the tissue to tissue ratio at 1 h (in vivo [3]; Tumor-to-Bladder ratio (T/B)) was 8.41 ± 1.6, the tissue to tissue ratio at 2 h (in vivo [3]; Tumor-to-Bladder ratio (T/B)) was 40.8 ± 16.9 and the tissue to tissue ratio at 0.5 h (in vivo [3]; Tumor-to-Blood ratio (T/B)) was 3.01 ± 1.29. The tissue to tissue ratio at 1 h (in vivo [3]; Tumor-to-Blood ratio (T/B)) was 6.8 ± 4.41, the tissue to tissue ratio at 2 h (in vivo [3]; Tumor-to-Blood ratio (T/B)) was 21.6 ± 9.41 and the tissue to tissue ratio at 0.5 h (in vivo [3]; Tumor-to-Bone ratio (T/B)) was 19.2 ± 4.91. It also gave a tissue to tissue ratio at 1 h (in vivo [3]; Tumor-to-Bone ratio (T/B)) of 18.8 ± 5.04, a tissue to tissue ratio at 2 h (in vivo [3]; Tumor-to-Bone ratio (T/B)) of 142 ± 25 and a tissue to tissue ratio at 0.5 h (in vivo [3]; Tumor-to-Brain ratio (T/B)) of 39.7 ± 24.6. For the same molecule, the tissue to tissue ratio at 1 h (in vivo [3]; Tumor-to-Brain ratio (T/B)) was 61.8 ± 7.46, the tissue to tissue ratio at 2 h (in vivo [3]; Tumor-to-Brain ratio (T/B)) was 154 ± 17.5 and the tissue to tissue ratio at 0.5 h (in vivo [3]; Tumor-to-Heart ratio (T/B)) was 5.23 ± 2.91. The tissue to tissue ratio at 1 h (in vivo [3]; Tumor-to-Heart ratio (T/B)) was 8.18 ± 0.91, the tissue to tissue ratio at 2 h (in vivo [3]; Tumor-to-Heart ratio (T/B)) was 18.5 ± 3.74 and the tissue to tissue ratio at 0.5 h (in vivo [3]; Tumor-to-Kidney ratio (T/B)) was 1.66 ± 1.37. For the same molecule, the tissue to tissue ratio at 1 h (in vivo [3]; Tumor-to-Kidney ratio (T/B)) was 1.15 ± 0.15, the tissue to tissue ratio at 2 h (in vivo [3]; Tumor-to-Kidney ratio (T/B)) was 1.62 ± 0.29 and the tissue to tissue ratio at 0.5 h (in vivo [3]; [4]) was 8.98 ± 3.85. The tissue to tissue ratio at 1 h (in vivo [3]; [4]) was 10.5 ± 1.55, the tissue to tissue ratio at 2 h (in vivo [3]; [4]) was 40.2 ± 29.4 and the tissue to tissue ratio at 0.5 h (in vivo [3]; Tumor-to-Liver ratio (T/B)) was 2.07 ± 1.51. It also gave a tissue to tissue ratio at 1 h (in vivo [3]; Tumor-to-Liver ratio (T/B)) of 3.05 ± 0.56, a tissue to tissue ratio at 2 h (in vivo [3]; Tumor-to-Liver ratio (T/B)) of 11.9 ± 4.6 and a tissue to tissue ratio at 0.5 h (in vivo [3]; Tumor-to-Lung ratio (T/B)) of 3.34 ± 2.07. For the same molecule, the tissue to tissue ratio at 1 h (in vivo [3]; Tumor-to-Lung ratio (T/B)) was 5.56 ± 2.82, the tissue to tissue ratio at 2 h (in vivo [3]; Tumor-to-Lung ratio (T/B)) was 19.7 ± 2.99 and the tissue to tissue ratio at 0.5 h (in vivo [3]; Tumor-to-Muscle ratio (T/M)) was 11.8 ± 5.75. The tissue to tissue ratio at 1 h (in vivo [3]; Tumor-to-Muscle ratio (T/M)) was 16.5 ± 2.99, the tissue to tissue ratio at 2 h (in vivo [3]; Tumor-to-Muscle ratio (T/M)) was 33 ± 7.91 and the tissue to tissue ratio at 0.5 h (in vivo [3]; [5]) was 7.72 ± 2.49. It also gave a tissue to tissue ratio at 1 h (in vivo [3]; [5]) of 8.04 ± 2.02, a tissue to tissue ratio at 2 h (in vivo [3]; [5]) of 26 ± 11.9 and a tissue to tissue ratio at 0.5 h (in vivo [3]; Tumor-to-Spleen ratio (T/B)) of 7.04 ± 3.92. It also gave a tissue to tissue ratio at 1 h (in vivo [3]; Tumor-to-Spleen ratio (T/B)) of 12.6 ± 2, a tissue to tissue ratio at 2 h (in vivo [3]; Tumor-to-Spleen ratio (T/B)) of 39.4 ± 7.6 and a tissue to tissue ratio at 0.5 h (in vivo [3]; Tumor-to-Stomach ratio (T/B)) of 4.5 ± 3.7. The tissue to tissue ratio at 1 h (in vivo [3]; Tumor-to-Stomach ratio (T/B)) was 5.93 ± 0.89, the tissue to tissue ratio at 2 h (in vivo [3]; Tumor-to-Stomach ratio (T/B)) was 10.5 ± 2.83 and the tissue uptake at 0.5 h (in vivo [3]; Bladder uptake) was 0.97 ± 0.52 %ID/g. The tissue uptake at 1 h (in vivo [3]; Bladder uptake) was 1.59 ± 0.58 %ID/g, the tissue uptake at 2 h (in vivo [3]; Bladder uptake) was 0.53 ± 0.15 %ID/g and the tissue uptake at 0.5 h (in vivo [3]; Blood uptake) was 2.25 ± 1.2 %ID/g. The tissue uptake at 2 h (in vivo [3]; Blood uptake) was 1.56 ± 0.97 %ID/g, the tissue uptake at 0.5 h (in vivo [3]; Bone uptake) was 0.78 ± 0.48 %ID/g and the tissue uptake at 2 h (in vivo [3]; Bone uptake) was 0.22 ± 0.18 %ID/g. It also gave a tissue uptake at 0.5 h (in vivo [3]; Brain uptake) of 0.17 ± 0.07 %ID/g, a tissue uptake at 2 h (in vivo [3]; Brain uptake) of 0.06 ± 0.04 %ID/g and a tissue uptake at 0.5 h (in vivo [3]; Heart uptake) of 1.26 ± 0.44 %ID/g. It also gave a tissue uptake at 2 h (in vivo [3]; Heart uptake) of 1.14 ± 0.39 %ID/g, a tissue uptake at 0.5 h (in vivo [3]; Kidney uptake) of 5.24 ± 3.64 %ID/g and a tissue uptake at 1 h (in vivo [3]; Kidney uptake) of 11.2 ± 1.84 %ID/g. The tissue uptake at 2 h (in vivo [3]; Kidney uptake) was 12.7 ± 3.23 %ID/g, the tissue uptake at 0.5 h (in vivo [3]; Large intestine uptake) was 1.38 ± 1.37 %ID/g and the tissue uptake at 2 h (in vivo [3]; Large intestine uptake) was 0.67 ± 0.34 %ID/g. It also gave a tissue uptake at 0.5 h (in vivo [3]; Liver uptake) of 3.45 ± 1.37 %ID/g, a tissue uptake at 1 h (in vivo [3]; Liver uptake) of 4.24 ± 0.47 %ID/g and a tissue uptake at 2 h (in vivo [3]; Liver uptake) of 2.01 ± 1.19 %ID/g. It also gave a tissue uptake at 0.5 h (in vivo [3]; Lung uptake) of 2.01 ± 0.71 %ID/g, a tissue uptake at 2 h (in vivo [3]; Lung uptake) of 1.02 ± 0.01 %ID/g and a tissue uptake at 0.5 h (in vivo [3]; Muscle uptake) of 0.57 ± 0.24 %ID/g. For the same molecule, the tissue uptake at 2 h (in vivo [3]; Muscle uptake) was 0.62 ± 0.19 %ID/g, the tissue uptake at 0.5 h (in vivo [3]; Small intestine uptake) was 1.48 ± 0.73 %ID/g and the tissue uptake at 2 h (in vivo [3]; Small intestine uptake) was 0.86 ± 0.32 %ID/g. It also gave a tissue uptake at 0.5 h (in vivo [3]; Spleen uptake) of 0.96 ± 0.4 %ID/g, a tissue uptake at 2 h (in vivo [3]; Spleen uptake) of 0.52 ± 0.05 %ID/g and a tissue uptake at 0.5 h (in vivo [3]; Stomach uptake) of 1.11 ± 0.59 %ID/g. The tissue uptake at 2 h (in vivo [3]; Stomach uptake) was 1.97 ± 0.39 %ID/g, the tissue uptake at 0.5 h (in vivo [3]; Tumor uptake) was 5.81 ± 1.83 %ID/g and the tissue uptake at 2 h (in vivo [3]; Tumor uptake) was 20.2 ± 3.31 %ID/g.

— article PMC12439480, “Dimeric CCK2R radiotheranostic tracers synergize with mTOR inhibition for enhanced tumor therapy” (Theranostics, 2025)
